The NIST ThermoML archive (doi:10.1016/j.fluid.2011.12.029)

Conditions: Liquid, Vibrating tube method

CCCC[n+]1ccccc1.F[B-](F)(F)F [1-butylpyridinium tetrafluoroborate]
Conditions	mass density [kg/m3]
283.15 K, 100 kPa	1225.36
283.15 K, 5000 kPa	1227.5
283.15 K, 10000 kPa	1229.65
283.15 K, 15000 kPa	1231.84
283.15 K, 20000 kPa	1233.82
283.15 K, 25000 kPa	1235.92
283.15 K, 30000 kPa	1237.85
283.15 K, 35000 kPa	1239.79
283.15 K, 40000 kPa	1241.64
283.15 K, 45000 kPa	1243.52
283.15 K, 50000 kPa	1245.28
283.15 K, 55000 kPa	1247
283.15 K, 60000 kPa	1248.71
283.15 K, 65000 kPa	1250.41
288.15 K, 100 kPa	1221.64
288.15 K, 5000 kPa	1223.77
288.15 K, 10000 kPa	1225.95
288.15 K, 15000 kPa	1228.23
288.15 K, 20000 kPa	1230.2
288.15 K, 25000 kPa	1232.3
288.15 K, 30000 kPa	1234.24
288.15 K, 35000 kPa	1236.23
288.15 K, 40000 kPa	1238.24
288.15 K, 45000 kPa	1240.13
288.15 K, 50000 kPa	1241.78
288.15 K, 55000 kPa	1243.6
288.15 K, 60000 kPa	1245.23
288.15 K, 65000 kPa	1247.03
293.15 K, 100 kPa	1218.02
293.15 K, 5000 kPa	1220.21
293.15 K, 10000 kPa	1222.35
293.15 K, 15000 kPa	1224.51
293.15 K, 20000 kPa	1226.68
293.15 K, 25000 kPa	1228.73
293.15 K, 30000 kPa	1230.74
293.15 K, 35000 kPa	1232.84
293.15 K, 40000 kPa	1234.73
293.15 K, 45000 kPa	1236.53
293.15 K, 50000 kPa	1238.41
293.15 K, 55000 kPa	1240.31
293.15 K, 60000 kPa	1241.96
293.15 K, 65000 kPa	1243.85
298.15 K, 100 kPa	1214.34
298.15 K, 5000 kPa	1216.62
298.15 K, 10000 kPa	1218.93
298.15 K, 15000 kPa	1221.01
298.15 K, 20000 kPa	1223.33
298.15 K, 25000 kPa	1225.43
298.15 K, 30000 kPa	1227.48
298.15 K, 35000 kPa	1229.43
298.15 K, 40000 kPa	1231.45
298.15 K, 45000 kPa	1233.36
298.15 K, 50000 kPa	1235.32
298.15 K, 55000 kPa	1237.1
298.15 K, 60000 kPa	1238.81
298.15 K, 65000 kPa	1240.44
303.15 K, 100 kPa	1210.91
303.15 K, 5000 kPa	1213.26
303.15 K, 10000 kPa	1215.59
303.15 K, 15000 kPa	1217.74
303.15 K, 20000 kPa	1219.92
303.15 K, 25000 kPa	1222.02
303.15 K, 30000 kPa	1224.11
303.15 K, 35000 kPa	1226.12
303.15 K, 40000 kPa	1228.08
303.15 K, 45000 kPa	1229.97
303.15 K, 50000 kPa	1231.94
303.15 K, 55000 kPa	1233.82
303.15 K, 60000 kPa	1235.58
303.15 K, 65000 kPa	1237.3
308.15 K, 100 kPa	1207.32
308.15 K, 5000 kPa	1209.57
308.15 K, 10000 kPa	1211.82
308.15 K, 15000 kPa	1214.09
308.15 K, 20000 kPa	1216.23
308.15 K, 25000 kPa	1218.48
308.15 K, 30000 kPa	1220.54
308.15 K, 35000 kPa	1222.62
308.15 K, 40000 kPa	1224.5
308.15 K, 45000 kPa	1226.48
308.15 K, 50000 kPa	1228.36
308.15 K, 55000 kPa	1230.34
308.15 K, 60000 kPa	1232.17
308.15 K, 65000 kPa	1234.06
313.15 K, 100 kPa	1203.87
313.15 K, 5000 kPa	1206.23
313.15 K, 10000 kPa	1208.56
313.15 K, 15000 kPa	1210.88
313.15 K, 20000 kPa	1213.11
313.15 K, 25000 kPa	1215.28
313.15 K, 30000 kPa	1217.47
313.15 K, 35000 kPa	1219.51
313.15 K, 40000 kPa	1221.56
313.15 K, 45000 kPa	1223.48
313.15 K, 50000 kPa	1225.54
313.15 K, 55000 kPa	1227.32
313.15 K, 60000 kPa	1229.18
313.15 K, 65000 kPa	1231.01
318.15 K, 100 kPa	1200.36
318.15 K, 5000 kPa	1202.66
318.15 K, 10000 kPa	1205.15
318.15 K, 15000 kPa	1207.31
318.15 K, 20000 kPa	1209.58
318.15 K, 25000 kPa	1211.7
318.15 K, 30000 kPa	1213.85
318.15 K, 35000 kPa	1216.03
318.15 K, 40000 kPa	1218.05
318.15 K, 45000 kPa	1220.04
318.15 K, 50000 kPa	1222.02
318.15 K, 55000 kPa	1223.9
318.15 K, 60000 kPa	1225.83
318.15 K, 65000 kPa	1227.74
323.15 K, 100 kPa	1196.96
323.15 K, 5000 kPa	1199.29
323.15 K, 10000 kPa	1201.77
323.15 K, 15000 kPa	1204.12
323.15 K, 20000 kPa	1206.47
323.15 K, 25000 kPa	1208.68
323.15 K, 30000 kPa	1210.86
323.15 K, 35000 kPa	1212.95
323.15 K, 40000 kPa	1215.03
323.15 K, 45000 kPa	1217
323.15 K, 50000 kPa	1218.98
323.15 K, 55000 kPa	1220.89
323.15 K, 60000 kPa	1222.84
323.15 K, 65000 kPa	1224.65
328.15 K, 100 kPa	1193.36
328.15 K, 5000 kPa	1195.72
328.15 K, 10000 kPa	1198.11
328.15 K, 15000 kPa	1200.54
328.15 K, 20000 kPa	1202.82
328.15 K, 25000 kPa	1205.08
328.15 K, 30000 kPa	1207.36
328.15 K, 35000 kPa	1209.57
328.15 K, 40000 kPa	1211.63
328.15 K, 45000 kPa	1213.66
328.15 K, 50000 kPa	1215.6
328.15 K, 55000 kPa	1217.56
328.15 K, 60000 kPa	1219.5
328.15 K, 65000 kPa	1221.56
333.15 K, 100 kPa	1190.07
333.15 K, 5000 kPa	1192.59
333.15 K, 10000 kPa	1195
333.15 K, 15000 kPa	1197.4
333.15 K, 20000 kPa	1199.91
333.15 K, 25000 kPa	1202.04
333.15 K, 30000 kPa	1204.36
333.15 K, 35000 kPa	1206.49
333.15 K, 40000 kPa	1208.69
333.15 K, 45000 kPa	1210.67
333.15 K, 50000 kPa	1212.88
333.15 K, 55000 kPa	1214.74
333.15 K, 60000 kPa	1216.56
333.15 K, 65000 kPa	1218.57
